Assay [1] has as its target T1, 5-hydroxytryptamine receptor 2A (Homo sapiens, UniProt P28223). Nature of the assay: Agonist activity at 5-HT2A (unknown origin) expressed in HEK293T cells co-transfected with RLuc-fused Galphaq/GFP2/Gy9/Gbeta3 assessed as Gaq hetero trimeric G protein activation at 0.1 to 10 uM incubated for 30 mins using coelenterazine 400a as a substrate by BRET assay relative to control. It counts as functional, cell-based. The following applies: filed as agonist, dose 0.1-10 µM. For orientation: BRET reads energy transfer from a luciferase to a nearby fluorophore.

For assay [2], the target named is T1, 5-hydroxytryptamine receptor 2A. Nature of the assay: Agonist activity at RLuc-fused 5-HT2A (unknown origin) expressed in HEK293T cells co-transfected with mVenus-fused beta arrestin-2/GRK2 assessed as beta arrestin-2 recruitment at 0.1 to 10 uM incubated for 30 mins using coelenterazine h as a substrate by BRET assay relative to control. It counts as functional, cell-based. The following applies: dose 0.1-10 µM. (In general: Arrestin recruitment assays detect the binding of arrestin to an activated receptor.)

Assay [3] shares this target. Description: Displacement of [3H]-LSD form 5-HT2A (unknown origin) expressed in Flp-In-T-Rex-293 membrane by Microbeta scintillation counting analysis. It counts as cell membranes. Background: Loss of bound radioactivity is the signal in a displacement assay; it reports binding, not function.
Assay [4] has the same target. Description: Agonist activity at 5-HT2A (unknown origin) expressed in HEK293T cells co-transfected with RLuc-fused Galphaq/GFP2/Gy9/Gbeta3 assessed as Gaq hetero trimeric G protein activation incubated for 30 mins using coelenterazine 400a as a substrate by BRET assay. It counts as functional, cell-based.
For assay [5] the target is unchanged. Description: Agonist activity at RLuc-fused 5-HT2A (unknown origin) expressed in HEK293T cells co-transfected with mVenus-fused beta arrestin-2/GRK2 assessed as beta arrestin-2 recruitment incubated for 30 mins using coelenterazine h as a substrate by BRET assay. It counts as functional, cell-based.

In general, Emax refers to the maximal effect, on the per cent scale that the assay sets. Broadly, the Ki is the dissociation constant of the complex between target and ligand, obtained from inhibition or displacement. Low readings indicate higher affinity, high ones lower affinity. By EC50 is commonly meant the midpoint of the concentration-response curve.

T1 sequence (P28223 whole entry, the tested form may be a part): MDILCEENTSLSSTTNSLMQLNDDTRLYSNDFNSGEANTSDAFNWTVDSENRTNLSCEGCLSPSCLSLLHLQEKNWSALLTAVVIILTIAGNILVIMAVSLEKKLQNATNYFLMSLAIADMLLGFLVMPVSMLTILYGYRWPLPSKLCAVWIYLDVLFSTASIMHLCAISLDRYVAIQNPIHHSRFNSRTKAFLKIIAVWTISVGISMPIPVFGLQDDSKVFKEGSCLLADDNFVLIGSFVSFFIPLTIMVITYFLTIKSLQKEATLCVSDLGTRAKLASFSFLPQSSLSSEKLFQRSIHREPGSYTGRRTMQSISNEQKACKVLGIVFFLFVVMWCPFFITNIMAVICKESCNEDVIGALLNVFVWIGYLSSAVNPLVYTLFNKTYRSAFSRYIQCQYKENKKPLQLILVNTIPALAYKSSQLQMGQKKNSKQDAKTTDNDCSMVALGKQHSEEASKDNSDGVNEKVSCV

As for `CN1CCC=C(c2n[nH]c3c(Cl)ccc(F)c23)C1`, the maximal response (Emax) in assay [1] is 95.4%; in assay [2] (filed as agonist) it was 50.9%.

Turning to `CN1CCC=C(c2n[nH]c3cc(F)ccc23)C1`, the values for the maximal response (Emax) in assay [1] and in assay [2] were 47.1% and 27%, respectively.

Take `COc1cccc2[nH]cc(C3=CCCN(C)C3)c12`: the maximal effect (Emax) was 91% in assay [1] and 47.7% in assay [2] (filed as agonist).

Regarding `CN1CCC=C(c2n[nH]c3c(Cl)cc(F)cc23)C1`, the maximum response (Emax) in assay [1] was determined as 91.4%; in assay [2] (filed as agonist), 88.5%.

As to `Clc1ccc2[nH]nc(C3=CCCNC3)c2c1`, the results for the Emax in assay [1] and in assay [2] (filed as agonist) were 94.8% and 97%, respectively.

Take `Clc1ccc2[nH]cc(C3=CCCNC3)c2c1`: the Emax came to 102% in assay [1] and 77.3% in assay [2] (filed as agonist).

In the case of `Cc1ccnc2[nH]cc(C3=CCCN(C)C3)c12`, the Emax was found to be 68.7% in assay [1] and 38.9% in assay [2].

In the case of `CC(C)c1ccc2[nH]cc(C3=CCCNC3)c2c1`, the values for the maximal response (Emax) in assay [1] and in assay [2] were 58.8% and 31.4%, respectively.

`COc1cccc2[nH]nc(C3=CCCNC3)c12`: the maximal effect (Emax) is 81.7% in assay [1] and 75.9% in assay [2] (filed as agonist).

With `CN1CCC=C(c2c[nH]c3c(Cl)c(F)ccc23)C1`, the Emax stood at 89.2% in assay [1] and 56.5% in assay [2] (filed as agonist).

As for `Fc1ccc(Cl)c2[nH]nc(C3=CCCNC3)c12`, the Emax amounted to 106% in assay [1] and 72.7% in assay [2] (filed as agonist).

Take `Cc1cccc2[nH]cc(C3=CCCNC3)c12`: the values for the Emax in assay [1] and in assay [2] (filed as agonist) were 85.7% and 42%, respectively.

For `Fc1ccc2c(C3=CCCNC3)n[nH]c2c1`, the maximum response (Emax) in assay [1] came to 79.4%; in assay [2] (filed as agonist), 59.4%.

In the case of `COc1cccc2[nH]cc(C3=CCCNC3)c12`, the Emax is 96.1% in assay [1] and 51.8% in assay [2] (filed as agonist).

Turning to `C1=C(c2c[nH]c3cccc(-c4ccccc4)c23)CNCC1`, the Ki in assay [3] amounted to 14 nM. Besides, the results for the EC50 in assay [4] and in assay [5] were 874 nM and 358 nM, respectively. Further, the Emax in assay [1] is 59.6%; in assay [2] it was 15.1%.

Turning to `COc1ccnc2[nH]cc(C3=CCCN(C)C3)c12`, the results for the maximal effect (Emax) in assay [1] and in assay [2] were 67.1% and 32.2%, respectively.

Regarding `Fc1ccc2[nH]nc(C3=CCCNC3)c2c1`, the values for the Emax in assay [1] and in assay [2] (filed as agonist) were 88.3% and 96%, respectively.

Source of the values: ChEMBL document CHEMBL5370684, “Small-Molecule Heterocyclic Compounds: Gq-Biased Agonists for the 5-HT2A Receptor in Neuropsychiatric Treatment” (ACS Med Chem Lett, 2023).
